{"source": "paper PMC9961272", "about": "“Ca^2+-Dependent and -Independent Calmodulin Binding to the Cytoplasmic Loop of Gap Junction Connexins” (International Journal of Molecular Sciences, 2023)", "key": {"[1]": {"test_system": "gap junction coupling in HUVEC", "test": "Multiparametric scrape loading-dye transfer assay (Lucifer Yellow spread)", "format": "cell-based, human", "conditions": "for LY spread after scratch wounding: 60 min pre-treatment, PMA 100 nM or 18ßGRR 100 µM, 15 min post-scratch; for LY spread in the absence of ionomycin stimulation: peptide 7 µM and 17.9 µM, 8 min pre-treatment + 8 min assay; for LY spread in the absence of ionomycin stimulation / LY spread after ionomycin pre-treatment in the presence of peptide: Ca2+-containing media; for LY spread after ionomycin pre-treatment in the presence of peptide: peptide 7 μM and 17.9 μM, 8 min + 8 min", "experimental": "(§1) The assay is described in detail in [48]; it is an adaption of the traditional fluorescence microscopy-based scrape loading dye transfer (sl-dt) technique. Briefly, HUVEC in 24 well trays were rinsed into +Ca+Mg-PBS. The solution was then replaced with fresh +Ca+Mg-PBS supplemented with Lucifer Yellow (LY; 1 mg/mL), propidium iodide (PI; 15 μM) and Hoechst 33,342 (90 μM) (dye transfer buffer). Immediately after addition of the dye transfer buffer, 3 parallel cuts in the cell monolayer in the central part of each well in the 24 wells were made using a micro scalpel knife with a flat edge stainless steel blade. The cells were then incubated at 37 °C for 8 or 15 min, as specified, before being washed twice with +Ca+Mg-PBS to remove the dye transfer buffer and then fixed in 3% PFA in PBS. Fresh dye transfer buffer was used for each experiment and the plates were stored in the dark at 4 °C.\nFor quantitative analysis of dye transfer and cell viability, images were acquired from 2 to 3 regions within each cut (6–9 measurements per well) using an EVOS M5000 microscope (Invitrogen, Waltham, MA, USA) equipped with a 10 × 0.3 NA air objective and EVOS LED light cubes for bright field imaging, FITC, RedX and DAPI. Images were acquired sequentially and exported to ImageJ for processing.\nPhorbol 12-myristate 13-acetate (PMA) or 18-β-glycyrrhetinic acid (18BGRR) was made up in dimethysulphoxide (DMSO) to a 10 mM or 50 mM stock, respectively, and diluted into HGM to a final concentration of 100 nM or 100 µM, respectively. Cells were incubated in PMA or 18BGRR acid containing solution for 60 min at 37 °C. The PMA or 18BGRR solution was then carefully removed and the cells were washed once in +Ca+Mg-PBS. The PBS was then replaced with the dye transfer buffer (see above) and immediately 3 parallel cuts were made in the cell monolayer in the central part of each well using a micro scalpel knife with a flat edge stainless steel blade. For each experiment drug treatments were carried out in triplicate wells each with 3 cuts per well. Cells were then processed as described above. For analysis of the Ca^2+ dependency of gap junction coupling, HUVEC were incubated in either +Ca+Mg-PBS (+Ca) or -Ca+Mg +0.2 mM EGTA (-Ca) containing PBS and stimulated with vehicle (0.001% DMSO), or 2 μM ionomycin for 8 min. Cells were then transferred to dye transfer buffer made using +Ca or −Ca PBS, supplemented with vehicle or 2 μM ionomycin, and 3 parallel cuts were made in cell monolayers in each well. Cells were incubated for a further 8 min prior to fixation. […] A stock solution of 3.6 mM was made to generate working concentrations of 6–18 µM.\nData analysis was carried out in the open-source-based software program Fiji ImageJ. A custom-made macro (Cut_Analyzer.ijm) published in the Supplementary Materials to [48] was used for the automated quantitation of gap junction intercellular communication using images acquired for the LY signal. Analysis of total cell number (Hoechst channel) and cell viability (propidium iodide channel) was made using custom made macros ([48] and Supplementary Methods)."}, "[2]": {"test_system": "HUVEC", "test": "Cell viability (PI+ cells) in dye transfer assay", "format": "cell-based", "conditions": "PMA 100 nM or 18ßGRR 100 µM, 60 min; % of PI+ cells", "experimental": "as §1, with “The cells were then incubated at 37 °C for 8 or 15 min, as specified, before being washed twice with +Ca+Mg-PBS to remove the dye transfer buffer and then fixed in 3% PFA in PBS. Fresh dye transfer buffer was used for each experiment and the plates were stored in the dark at 4 °C.” left out\nData analysis was carried out in the open-source-based software program Fiji ImageJ. A custom-made macro (Cut_Analyzer.ijm) published in the Supplementary Materials to [48] was used for the automated quantitation of gap junction intercellular communication using images acquired for the LY signal. […]\nAnalysis of cell number. To determine the number of cells per field of view we counted the number of Hoechst stained nuclei using a simple macro (Nuclei count.ijm) recorded […]\nCounting cell nuclei using Fiji ImageJ. […] Images were then converted to a mask, a Watershed applied to identify and separate overlapping nuclei and objects counted using the Analyze particles function. […]\nAnalysis of cell viability. […] Cell viability was expressed as the fraction of cells negative for PI. […]"}, "[3]": {"test_system": "HUVEC", "test": "Fura-2 epifluorescence imaging of [Ca2+]i", "format": "cell-based, human", "conditions": "ionomycin 2 µM, fura-2 loaded HUVEC", "experimental": "HUVEC were grown on 24 mm square uncoated glass coverslips in growth medium. For Fura-2 loading, the cells were transferred into Hanks solution (140 mM NaCl, 5 mM KCl, 1.8 mM CaCl2, 2 mM MgCl2, 10 mM glucose, 10 mM HEPES-NaOH pH 7.4) supplemented with 2.5 µM Fura-2AM (Molecular Probes, Eugene, Oregon, USA) diluted from a stock solution of 5 mM Fura-2AM in DMSO with 2.0% Pluoronic F-127. Cells were incubated at room temperature in the dark for 20 min before being transferred into fresh Hanks solution and further maintained in the dark at RT until use. Cells were transferred to the stage of an Olympus IX71 inverted fluorescence microscope and maintained at 32–34 °C. The imaging system comprised an excitation monochromator (Optoscan, Cairn Research), U-Plan-Apo ×100 1.35 NA objective and an Ixon EMCCD camera (Andor). Fura-2 was illuminated sequentially with 355 ± 5 nm and 380 ± 5 nm light and wavelength switching synchronised with image capture using WinFluor software (Dr John Dempster, Strathclyde University). The EMCCD camera was operated in frame transfer mode at full gain and cooled to −70 °C. Full frame (512 by 512 pixels) images were acquired at 30 frames/s. Ionomycin was applied by droplet application."}, "[4]": {"test_system": "CaM", "test": "CaM binding signals of Cx32 CT peptide"}, "[5]": {"biological_target": "TA-CaM (Homo sapiens, UniProt P0DP23)", "conditions": "Ca2+ titration of TA-CaM alone or with peptide", "method": "The binding curves were fitted to the Hill equation to obtain Kd and Hill coefficient values (n) (Table 2).\nThe fluorescence was corrected for dilution and [Ca^2+] concentration was calculated using Maxchelator software. The data were fitted to the Hill equation with specific binding (y = Bmax∗x^n/(Kd^n + x^n)) using GraphPad Prism 9."}, "[6]": {"biological_target": "apo-DA-CaM (Homo sapiens, UniProt P0DP23, T111C/T35C)", "test": "Stopped-flow association and dissociation kinetics with apo-DA-CaM (with and without 15% TFE)", "conditions": "500 nM DA-CaM with 10 µM mTrp, 5 mM EGTA, mixed with 300 µM CaM, 20 °C", "method": "We were interested to see if we can detect apo-CaM binding to Cx CL2 peptides using DA-CaM, the conformation of which is insensitive to [Ca^2+] changes, but which indicates changes in the distance between the N- and C-lobe with high sensitivity.\nThe kinetics of Ca^2+/DA-CaM and DA-CaM interactions with Cx CL2 peptides was measured using a TgK Scientific KinetAsyst™ double-mixing stopped-flow apparatus (TgK Scientific Ltd., Bradford-on-Avon, UK) in single mixing mode. The fluorescence was excited at 340 nm and the emission was detected by a photomultiplier tube with a long pass filter (>400 nm). […] All concentrations given are those in the mixing chamber. Data shown are averages of 3 to 5 repeats. All experiments were carried out at 20 °C. Data were analysed using Kinetic Studio software (TgK Scientific Ltd., Bradford-on-Avon, UK)."}}, "note": "“Also recorded” adds a separate entry of the source."}
{"molecule": "CC1(C)[C@@H](O)CC[C@]2(C)[C@H]3C(=O)C=C4[C@@H]5C[C@@](C)(C(=O)O)CC[C@]5(C)CC[C@@]4(C)[C@]3(C)CC[C@@H]12", "note": "[18ßGRR, 18-β-glycyrrhetinic acid]", "values": [{"measurement": "LY spread after scratch wounding", "setting": "[1]", "value": "significantly reduced LY spread"}, {"measurement": "Cell viability following drug treatments", "setting": "[2]", "value": "No evidence for decreased cell viability"}]}
{"molecule": "CCCCCCCCCCCCCC(=O)O[C@@H]1[C@@H](C)[C@@]2(O)[C@@H](C=C(CO)C[C@]3(O)C(=O)C(C)=C[C@@H]23)[C@@H]2C(C)(C)[C@]12OC(C)=O", "note": "[PMA, 12-phorbol 13-myristate acetate]", "values": [{"measurement": "LY spread after scratch wounding", "setting": "[1]", "value": "significantly reduced LY spread"}, {"measurement": "Cell viability following drug treatments", "setting": "[2]", "value": "No evidence for decreased cell viability"}]}
{"molecule": "C[C@H](CCC(=O)O)C[C@H](C)C[C@H](C)C(=O)/C=C(\\O)[C@H](C)C[C@H](C)C/C=C/[C@@H](C)[C@@H](O)[C@@H](C)[C@@H](O)C[C@@H]1CC[C@@](C)([C@H]2CC[C@@](C)([C@@H](C)O)O2)O1", "note": "[ionomycin]", "values": [{"measurement": "Effect on LY spread when external Ca^2+ omitted", "setting": "[1]; ionomycin 2 µM, 8 min, external Ca2+ omitted", "value": "greatly reduced"}, {"measurement": "LY spread after scratch formation", "setting": "[1]; ionomycin 2 µM, 8 min pre-treatment, external Ca2+ present, 8 min LY spread", "value": "significantly reduced the spread of LY; also recorded: completely blocked"}, {"measurement": "Change in [Ca^2+]i (fura-2 ratio)", "setting": "[3]", "value": "initial fast increase in [Ca^2+]i"}]}
{"molecule": "EINKLLSEQDGSLKDILRRS [Cx32 CT peptide]", "values": [{"measurement": "CaM binding signal", "setting": "[4]", "value": "unable to detect any signals indicating CaM binding"}]}
{"molecule": "N-[myr]-RRKEQKTGHAVRAIGRE-amide [control peptide]", "values": [{"measurement": "LY spread in the absence of ionomycin stimulation", "setting": "[1]", "value": "no significant difference in LY spread"}, {"measurement": "LY spread after ionomycin pre-treatment in the presence of peptide", "setting": "[1]; ionomycin 2 µM", "value": "significantly reduced LY spread"}]}
{"molecule": "N-[myr]-RRKWQKTGHAVRAIGRL-amide [mTrp]", "values": [{"measurement": "Hill Coefficient n TA-CaM", "setting": "[5]", "value": "1.3 ± 0.1"}, {"measurement": "LY spread in the absence of ionomycin stimulation", "setting": "[1]", "value": "no significant difference in LY spread"}, {"measurement": "LY spread after ionomycin pre-treatment in the presence of peptide", "setting": "[1]; ionomycin 2 µM", "value": "reduced the inhibition of LY spread; also recorded: prevented the Ca^2+-induced block"}, {"measurement": "Dissociation from apo-DA-CaM, fast phase", "setting": "[6]", "value": 130, "unit": "s⁻¹"}, {"measurement": "Dissociation from apo-DA-CaM, slow phase", "setting": "[6]", "value": 0.9, "unit": "s⁻¹"}]}
